What was measured:
[1] = human absorption data, from Ertl et al., J. Med. Chem., 2000; cited from earlier work
human NHE3 [2] = target: T1, human NHE3 (Homo sapiens, UniProt P48764); assay: Cell-based assay of NHE-3 activity (pre-incubation inhibition), human; settings: human Preincuba assay; PS120 fibroblasts expressing human NHE3 and NHERF2
T1 construct: host or cells: PS120 fibroblasts
T1 sequence (P48764 26-834): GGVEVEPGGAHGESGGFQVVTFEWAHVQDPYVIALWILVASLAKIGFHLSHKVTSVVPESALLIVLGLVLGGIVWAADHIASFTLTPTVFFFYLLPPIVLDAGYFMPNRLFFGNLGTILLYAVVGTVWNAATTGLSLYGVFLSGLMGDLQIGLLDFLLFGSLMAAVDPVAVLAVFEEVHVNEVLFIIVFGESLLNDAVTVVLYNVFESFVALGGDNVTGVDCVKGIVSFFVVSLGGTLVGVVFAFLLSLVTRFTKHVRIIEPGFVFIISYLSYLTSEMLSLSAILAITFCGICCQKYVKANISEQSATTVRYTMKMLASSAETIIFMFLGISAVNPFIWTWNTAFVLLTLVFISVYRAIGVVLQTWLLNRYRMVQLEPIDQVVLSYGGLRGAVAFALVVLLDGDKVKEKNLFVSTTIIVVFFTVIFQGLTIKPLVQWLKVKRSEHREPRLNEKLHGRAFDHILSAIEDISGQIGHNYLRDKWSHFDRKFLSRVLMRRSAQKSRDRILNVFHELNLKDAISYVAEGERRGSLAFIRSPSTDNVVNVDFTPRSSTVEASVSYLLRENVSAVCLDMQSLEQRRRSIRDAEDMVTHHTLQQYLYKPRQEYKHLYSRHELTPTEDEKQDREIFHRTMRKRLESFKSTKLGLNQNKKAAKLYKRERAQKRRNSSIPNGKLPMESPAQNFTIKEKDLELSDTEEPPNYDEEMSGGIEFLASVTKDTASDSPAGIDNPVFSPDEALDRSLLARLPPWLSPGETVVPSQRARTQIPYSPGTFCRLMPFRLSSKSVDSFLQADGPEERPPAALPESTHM
T1 sequence (Q99653 2-195 partner limits assumed): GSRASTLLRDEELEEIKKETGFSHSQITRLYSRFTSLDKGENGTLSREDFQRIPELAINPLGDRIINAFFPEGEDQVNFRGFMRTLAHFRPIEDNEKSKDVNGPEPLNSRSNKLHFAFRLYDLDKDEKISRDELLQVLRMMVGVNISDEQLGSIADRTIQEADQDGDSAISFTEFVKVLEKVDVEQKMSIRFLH
Protocol: Rat and human NHE-3-mediated Na^+-dependent H^+ antiport was measured using a modification of the pH sensitive dye method originally reported by Paradiso (Proc. Natl. Acad. Sci. USA. (1984) 81(23): 7436-7440). PS120 fibroblasts stably expressing human NHE3 and NHERF2 were obtained from Mark Donowitz (Baltimore, Md.). Opossum kidney (OK) cells were obtained from the ATCC and propagated per their instructions. The rat NHE-3 gene (GenBank M85300) was introduced into OK cells via electroporation, and cells were seeded into 96 well plates and grown overnight. Medium was aspirated from the wells then incubated for 30 min at 37° C. with NH4Cl-HEPES buffer (20 mM […], 80 mM NaCl, 50 mM HEPES, 5 mM KCl, 2 mM CaCl2, 1 mM MgCl2, pH 7.4) containing 5 μM BCECF-AM. Cells were washed once with Ammonium free, Na^t-free HEPES (100 mM choline, 50 mM HEPES, 10 mM glucose, 5 mM KCl, 2 mM CaCl2), 1 mM MgCl2, pH 7.4) and incubated in the same buffer for 10 minutes at room temperature to lower intracellular pH with 0-30 μM test compound. […] Changes in intracellular pH were monitored using a FLIPR Tetra®® (Molecular Devices, Sunnyvale, Calif.) by excitation at λex 439 to 505 nm, and measuring BCECF fluorescence at λem 538 nm. The initial rate of the fluorescence ratio change was used as a measure of NHE-mediated Na^+/H^+ activity, and reported as the change in fluorescence ratio per minute.

human NHE3 [3] = target: T1, human NHE3; assay: Cell-based assay of NHE-3 activity (persistent inhibition after washout), human; settings: human Persistence assay; after 60 min incubation and washout
Protocol: The ability of compounds to inhibit human and rat NHE-3-mediated Na^+-dependent H^+ antiport after application and washout was measured using a modification of the pH sensitive dye method described above. PS120 fibroblasts stably expressing human NHE3 and NHERF2 were obtained from Mark Donowitz (Baltimore, Md.). Opossum kidney (OK) cells were obtained from the ATCC and propagated per their instructions. The rat NHE-3 gene was introduced into OK cells via electroporation, and cells were seeded into 96 well plates and grown overnight. Medium was aspirated from the wells, cells were washed once with NaCl-HEPES buffer (100 mM NaCl, 50 mM HEPES, 10 mM glucose, 5 mM KCl, 2 mM CaCl2, 1 mM MgCl2, pH 7.4), then overlayed with NaCl-HEPES buffer containing 0-30 μM test compound. After a 60 min incubation at room temperature, the test drug containing buffer was aspirated from the cells. Following aspiration, cells were washed once with NaCl-HEPES buffer without drug, then incubated for 30 min at 37° C. with NH4Cl-HEPES buffer (20 mM NH4Cl, 80 mM NaCl, 50 mM HEPES. 5 mM KCl, 2 mM CaCl2), 1 mM MgCl2, pH 7.4) containing 5 μM BCECF-AM. Cells were washed once with Ammonium free, Na^+-free HEPES (100 mM choline, 50 mM HEPES, 10 mM glucose. 5 mM KCl, 2 mM CaCl2), 1 mM MgCl2, pH 7.4) and incubated in the same buffer for 10 minutes at room temperature to lower intracellular pH. NHE-3-mediated recovery of neutral intracellular pH was initiated (10 min after compound washout) by addition of Na-HEPES buffer. […] Changes in intracellular pH were monitored using a FLIPR Tetra® (Molecular Devices, Sunnyvale, Calif.) by excitation at λex 439 to 505 nm, and measuring BCECF fluorescence at λem 538 nm. The initial rate of the fluorescence ratio change was used as a measure of NHE-mediated Na^+/H^+ activity, and reported as the change in fluorescence ratio per minute.

% inhibition (human NHE3 [2]) | IC50 (human NHE3 [2]) [nM] | % inhibition (human NHE3 [3]) | IC50 (human NHE3 [3]) [nM] | Compound | $ FA [1]
– | – | – | – | OC[C@@H](O)[C@@H](O)[C@H](O)[C@H](O)CO [mannitol] | 26
– | – | – | – | O=C(O)c1cc(/N=N/c2ccc(S(=O)(=O)Nc3ccccn3)cc2)ccc1O [sulfasalazine] | 12
– | – | – | – | Cc1ccccc1N1C(=O)c2cc(S(N)(=O)=O)c(Cl)cc2NC1C (stereo not shown) [metolazone] | 64
– | – | – | – | OC[C@H]1O[C@@H](O[C@@H]2[C@@H](CO)OC(O)(CO)[C@H]2O)[C@H](O)[C@@H](O)[C@H]1O (mixture of isomers) [lactulose] | 0.6
– | – | – | – | CC(=O)Nc1ccc(OCC(O)CNC(C)C)cc1 (stereo not shown) [practolol] | 95
– | – | – | – | C=CCOc1ccccc1OCC(O)CNC(C)C (stereo not shown) [oxyprenolol] | 97
C (>70%) | < 100 | C (>70%) | 100 to 1000 | CN1Cc2c(Cl)cc(Cl)cc2[C@H](c2cccc(S(=O)(=O)N3CC[C@H](OCCOCCNC(=O)NCCCCNC(=O)NCCOCCO[C@H]4CCN(S(=O)(=O)c5cccc([C@@H]6CN(C)Cc7c(Cl)cc(Cl)cc76)c5)C4)C3)c2)C1 [Example 50] | –
– | – | – | – | CCN1CCCC1CNC(=O)c1cc(S(N)(=O)=O)ccc1OC (stereo not shown) [sulpiride] | 36
C (>70%) | < 100 | C (>70%) | 100 to 1000 | CN1Cc2c(Cl)cc(Cl)cc2[C@H](c2cccc(S(=O)(=O)N3CC[C@@H](OCCOCCNC(=O)NCCCCNC(=O)NCCOCCO[C@@H]4CCN(S(=O)(=O)c5cccc([C@@H]6CN(C)Cc7c(Cl)cc(Cl)cc76)c5)C4)C3)c2)C1 [Example 49, 1-(2-(2-(((R)-1-((3-((S)-6,8-dichloro-2-methyl-1,2,3,4-tetrahydroisoquinolin-4-yl)phenyl)sulfonyl)pyrrolidin-3-yl)oxy)ethoxy)ethyl)-3-(4-(3-(2-(2-(((R)-1-((3-((S)-6,8-dichloro-2-methyl-1,2,3,4-tetrahydroisoquinolin-4-yl)phenyl)sulfonyl)pyrrolidin-3-yl)oxy)ethoxy)ethyl)ureido)buty)urea] | –
C (>70%) | < 100 | C (>70%) | 100 to 1000 | CN1Cc2c(Cl)cc(Cl)cc2[C@H](c2cccc(S(=O)(=O)NC(C)(C)COCCOCCNC(=O)NCCCCNC(=O)NCCOCCOCC(C)(C)NS(=O)(=O)c3cccc([C@@H]4CN(C)Cc5c(Cl)cc(Cl)cc54)c3)c2)C1 [Example 47, 3-(2-[2-[2-([3-[(4S)-6,8-dichloro-2-methyl-1,2,3,4-tetrahydroisoquinolin-4-yl]benzene]sulfonamido)-2-methylpropoxy]ethoxy]ethyl)-1-(4-[[(2-[2-[2-([3-[(4S)-6,8-dichloro-2-methyl-1,2,3,4-tetrahydroisoquinolin-4-yl]benzene]sulfonamido)-2-methylpropoxy]ethoxy]ethyl)carbamoyl]amino]butyl)urea] | –
– | – | – | – | O=C(O)P(=O)(O)O [foscarnet] | 17
– | – | – | – | CC(C)NCC(O)COc1cccc2[nH]ccc12 (stereo not shown) [pindolol] | 92
C (>70%) | < 100 | C (>70%) | < 100 | CN1Cc2c(Cl)cc(Cl)cc2C(c2cccc(S(=O)(=O)N[C@@H]3CCN(CCOCCNC(=O)NCCCCNC(=O)NCCOCCN4CC[C@@H](NS(=O)(=O)c5cccc(C6CN(C)Cc7c(Cl)cc(Cl)cc76)c5)C4)C3)c2)C1 (stereo partly drawn) [Example 24, N,N′-[(3R,3′R)-(7,14-Dioxo-3,18-dioxa-6,8,13,15-tetraazaicosane-1,20-diyl)bis(pyrrolidine-1,3-diyl)]bis[3-(6,8-dichloro-2-methyl-1,2,3,4-tetrahydroisoquinolin-4-yl)benzenesulfonamide]] | –
– | – | – | – | NC[C@H]1CC[C@H](C(=O)O)CC1 [tranexamic acid] | 55
– | – | – | – | O=C(O)c1cc(/N=N/c2ccc(O)c(C(=O)O)c2)ccc1O [olsalazine] | 2.3
– | – | – | – | OC[C@H]1O[C@H](OC[C@H]2O[C@H](O[C@]3(CO)O[C@H](CO)[C@@H](O)[C@@H]3O)[C@H](O)[C@@H](O)[C@@H]2O)[C@H](O)[C@@H](O)[C@H]1O [raffinose] | 0.3
C (>70%) | < 100 | C (>70%) | 100 to 1000 | CN1Cc2c(Cl)cc(Cl)cc2[C@H](c2cccc(S(=O)(=O)N3CCC(OCCOCCNC(=O)NCCCCNC(=O)NCCOCCOC4CCN(S(=O)(=O)c5cccc([C@@H]6CN(C)Cc7c(Cl)cc(Cl)cc76)c5)CC4)CC3)c2)C1 [Example 48] | –
– | – | – | – | C=CCc1ccccc1OCC(O)CNC(C)C (stereo not shown) [alprenolol] | 96
A (NHE3 <40%) | > 1000 | A (NHE3 <40%) | > 1000 | CC(C)[C@H](COCCOCCNC(=O)NCCCCNC(=O)NCCOCCOC[C@H](NS(=O)(=O)c1cccc([C@@H]2CN(C)Cc3c(Cl)cc(Cl)cc32)c1)C(C)C)NS(=O)(=O)c1cccc([C@@H]2CN(C)Cc3c(Cl)cc(Cl)cc32)c1 [Example 51] | –
